The source of these data is US20220395487A1, “RIG-I INNATE IMMUNE RECEPTOR ANTAGONISTS AND METHODS OF USING SAME” (YALE UNIVERSITY, priority 2019, published 2022).

For this data set, the system named is A549 cells. In words: qRT-PCR of metabolism and stress marker genes (ACTB, GAPDH, p21, BAX) in A549 cells. In kind it is cell-based, human. As to conditions: p21, BAX by qRT-PCR. The protocol:
In the second assay, inhibition of RIG-I that is endogenously expressed in A549 cells was evaluated by monitoring IFN and ISG levels by qRT-PCR. A549 cells were propagated in T75 flasks containing Dulbecco's Modified Eagle Medium, DMEM, (Life Technologies) supplemented with 10% heat-inactivated fetal bovine serum (Hyclone) and Non-Essential Amino Acids (Life Technologies). For the assay, 0.5 ml of cells at 100,000 cells/ml was seeded in 24-well plates. After 24 h, DMEM growth media was replaced with media containing drug, as described above for the IFN induction assay using HEK293T cells. After 30 minutes, the cells were transfected with 1 μg of the synthetic stem-loop RNA (SLR14), using the Lipofectamine 2000 transfection reagent. After 5-6 hours, cells were harvested and total RNA was isolated using E.Z.N.A total RNA isolation kit (Omega Bio-tek), following the manufacturer's instructions. […] Each sample was analyzed in triplicate and normalized to HPRT expression. Gene expression quantification was performed according to the Livak ΔΔCt method.
These experiments were consistent with a target-specific response to the compounds. […] To evaluate interference with cell growth or viability, genes that represent markers of cell metabolism and stress response (ACTB, GAPDH, p21, BAX) were also simultaneously monitored. […]
Background: Quantitative PCR measures a nucleic acid by following its amplification.

With `CCC1(CC)C(=O)N=C2C1=C(OCc1ccccc1)C(=O)c1ccccc12` [RIG012, 4-Benzyloxy-3,3-diethyl-2H,3H,5H-benzo[g]indole-2,5-dione], the “expression of genes involved in cell viability and metabolism” value is listed as “unaffected”.
